Results: patent publication US12161722B2, “Bifunctional heterocyclic compound having BTK degradation function via ubiquitin proteasome pathway, and use thereof” (KOREA RESEARCH INSTITUTE OF CHEMICAL TECHNOLOGY, priority 2021, dated 2024)

Tests used:
WT BTK protein = target: T1, WT BTK protein (Homo sapiens, UniProt Q06187); assay: BTK protein degradation assay (Western blotting), WT BTK; format: cell-based; settings: concentration range accounting for 50% degradation of WT BTK protein, TMD-8 or RAMOS cells, 24 hours
T1 construct: measured for intracellular BTK protein levels by Western blotting; endogenous in cells; host or cells: TMD-8 or RAMOS cells
Outline: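 TMD-8 cells (1×10^6 cells/mL) treated 24 h with compound serial dilutions, then lysed in RIPA. Equal protein loads analysed by Western blot for BTK with GAPDH/β-actin as loading controls; activity binned by concentration giving 50% WT BTK degradation.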

C481S BTK protein = target: T2, C481S BTK protein (Homo sapiens, UniProt Q06187, C481S); assay: BTK protein degradation assay (Western blotting), C481S BTK; format: cell-based; settings: concentration range accounting for 50% degradation of C481S BTK protein, 293T BTK MUT (C481S) cells
T2 construct: expressed in transfected cells; host or cells: 293T BTK MUT (C481S) cells
Outline: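 TMD-8, RAMOS or 293T BTK C481S cells were treated 24 h with compounds from 10-fold DMSO stock series (10 to 0.0001 mM). BTK was measured by Western blot with GAPDH/β-actin references. Activity was binned by concentration giving 50% degradation: +++ (0.0001-0.01 μM), ++ (0.01-1 μM), + (1-10 μM), − (>10 μM).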

T2 sequence (Q06187 whole entry C481S): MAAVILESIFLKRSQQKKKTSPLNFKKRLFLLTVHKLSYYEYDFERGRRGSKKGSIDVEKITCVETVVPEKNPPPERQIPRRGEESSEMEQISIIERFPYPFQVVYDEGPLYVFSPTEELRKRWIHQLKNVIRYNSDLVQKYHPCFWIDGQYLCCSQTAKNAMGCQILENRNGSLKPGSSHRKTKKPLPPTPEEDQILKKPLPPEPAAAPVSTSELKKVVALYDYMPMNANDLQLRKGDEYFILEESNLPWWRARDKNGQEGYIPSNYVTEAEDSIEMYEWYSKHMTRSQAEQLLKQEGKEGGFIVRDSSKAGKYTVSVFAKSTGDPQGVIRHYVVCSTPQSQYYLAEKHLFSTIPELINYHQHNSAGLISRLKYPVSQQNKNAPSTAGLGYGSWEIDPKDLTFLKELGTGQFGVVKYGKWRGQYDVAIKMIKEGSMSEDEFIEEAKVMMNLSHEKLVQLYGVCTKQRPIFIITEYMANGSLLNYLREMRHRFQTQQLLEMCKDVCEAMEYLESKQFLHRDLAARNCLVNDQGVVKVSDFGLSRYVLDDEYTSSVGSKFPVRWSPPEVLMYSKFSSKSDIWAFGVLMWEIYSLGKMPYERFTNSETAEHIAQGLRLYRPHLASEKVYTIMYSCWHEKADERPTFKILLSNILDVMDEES
T1 sequence (Q06187 whole entry): as the sequence (Q06187 whole entry C481S) above, with S481C counted along it

DC50 (WT BTK protein) [nM]	DC50 (C481S BTK protein) [nM]	SMILES
0.1 to 10	0.1 to 10	Cc1cccc(C)c1Nc1nn(C)c2nc(Nc3ccc4c(c3)CN(C3CCN(c5ccc6c(c5)C(=O)N(C5CCC(=O)NC5=O)C6=O)CC3)CC4)ncc12 (stereo not drawn) [Compound 88, 5-(4-(7-((3-((2,6-dimethylphenyl)amino)-1-methyl-1H-pyrazolo[3,4-d]pyrimidin-6-yl)amino)-3,4-dihydroisoquinolin-2 (1H)-yl)piperidin-1-yl)-2-(2,6-dioxopiperidin-3-yl)isoindoline-1,3-dione]
0.1 to 10	0.1 to 10	Cc1cccc(C)c1Nc1nn(C)c2nc(Nc3ccc4c(c3)CN(C[C@H]3CCN(c5ccc6c(c5)C(=O)N(C5CCC(=O)NC5=O)C6=O)C3)CC4)ncc12 (stereo partly drawn) [Compound 144, 5-((R)-3-((7-((3-((2,6-dimethylphenyl)amino)-1-methyl-1H-pyrazolo[3,4-d]pyrimidin-6-yl)amino)-3,4-dihydroisoquinolin-2 (1H)-yl)methyl)pyrrolidin-1-yl)-2-(2,6-dioxopiperidin-3-yl)isoindoline-1,3-dione]
0.1 to 10	0.1 to 10	Cc1cccc(C)c1Nc1nn(C)c2nc(Nc3ccc4c(c3)CN(C3CN(CC5CCN(c6ccc7c(c6)C(=O)N(C6CCC(=O)NC6=O)C7=O)CC5)C3)CC4)ncc12 (stereo not drawn) [Compound 149, 5-(4-((3-(7-((3-((2,6-Dimethylphenyl)amino)-1-methyl-1H-pyrazolo[3,4-d]pyrimidin-6-yl)amino)-3,4-dihydroisoquinolin-2 (1H)-yl)azetidin-1-yl)methyl)piperidin-1-yl)-2-(2,6-dioxopiperidin-3-yl)isoindoline-1,3-dione]
